Measured values: ChEMBL document CHEMBL5038675, “Selective A3 Adenosine Receptor Antagonist Radioligand for Human and Rodent Species” (ACS Med Chem Lett, 2022)

Tests used:
[1] = target: T1, Adenosine receptor A3 (Rattus norvegicus, UniProt P28647); assay type: cell-based, HEK293
T1 sequence (P28647 whole entry): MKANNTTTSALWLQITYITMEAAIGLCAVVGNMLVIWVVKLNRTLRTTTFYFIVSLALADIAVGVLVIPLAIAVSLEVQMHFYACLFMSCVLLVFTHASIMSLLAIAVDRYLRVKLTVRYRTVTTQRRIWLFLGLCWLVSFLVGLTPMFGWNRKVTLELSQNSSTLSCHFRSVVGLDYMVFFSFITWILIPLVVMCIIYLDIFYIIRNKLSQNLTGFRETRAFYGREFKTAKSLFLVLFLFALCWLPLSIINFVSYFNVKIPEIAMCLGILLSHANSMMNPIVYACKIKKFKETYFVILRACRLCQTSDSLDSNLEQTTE

[2] = target: T2, Adenosine receptor A3 (Mus musculus, UniProt Q61618); assay type: cell-based, HEK293
T2 sequence (Q61618 whole entry): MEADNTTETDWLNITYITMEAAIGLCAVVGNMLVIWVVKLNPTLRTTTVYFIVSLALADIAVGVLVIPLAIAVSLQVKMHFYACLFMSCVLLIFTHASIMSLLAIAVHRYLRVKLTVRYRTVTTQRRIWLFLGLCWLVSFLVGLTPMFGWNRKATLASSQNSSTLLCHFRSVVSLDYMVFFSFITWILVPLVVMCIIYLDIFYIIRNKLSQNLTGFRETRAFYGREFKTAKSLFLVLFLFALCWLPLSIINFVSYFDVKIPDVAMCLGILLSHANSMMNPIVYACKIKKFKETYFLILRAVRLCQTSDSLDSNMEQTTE

[3] = Lipophilicity, logP of compound; assay type: physicochemical; conditions: octanol/water
[4] = target: Adenosine receptor A2b (Rattus norvegicus, UniProt P29276); test: Displacement of [3H] DPCPX from rat adenosine A2B receptor expressed in HEK293 cells incubated for 60 mins by radioligand binding assay; assay type: cell-based
Sequence of Adenosine receptor A2b (Rattus norvegicus, UniProt P29276) (P29276 whole entry): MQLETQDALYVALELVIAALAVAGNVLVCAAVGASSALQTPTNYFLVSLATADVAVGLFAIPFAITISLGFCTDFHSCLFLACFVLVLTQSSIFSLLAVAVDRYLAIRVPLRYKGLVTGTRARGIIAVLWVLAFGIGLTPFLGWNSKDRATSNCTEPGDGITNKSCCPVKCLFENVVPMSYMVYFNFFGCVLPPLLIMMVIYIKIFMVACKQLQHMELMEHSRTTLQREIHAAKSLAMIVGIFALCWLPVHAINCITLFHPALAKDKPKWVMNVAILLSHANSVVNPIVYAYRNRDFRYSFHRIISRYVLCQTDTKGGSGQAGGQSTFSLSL

[5] = target: Adenosine receptor A2b (Mus musculus, UniProt Q60614); test: Displacement of [3H] DPCPX from mouse adenosine A2B receptor expressed in HEK293 cells incubated for 60 mins by radioligand binding assay; assay type: cell-based
Sequence of Adenosine receptor A2b (Mus musculus, UniProt Q60614) (Q60614 whole entry): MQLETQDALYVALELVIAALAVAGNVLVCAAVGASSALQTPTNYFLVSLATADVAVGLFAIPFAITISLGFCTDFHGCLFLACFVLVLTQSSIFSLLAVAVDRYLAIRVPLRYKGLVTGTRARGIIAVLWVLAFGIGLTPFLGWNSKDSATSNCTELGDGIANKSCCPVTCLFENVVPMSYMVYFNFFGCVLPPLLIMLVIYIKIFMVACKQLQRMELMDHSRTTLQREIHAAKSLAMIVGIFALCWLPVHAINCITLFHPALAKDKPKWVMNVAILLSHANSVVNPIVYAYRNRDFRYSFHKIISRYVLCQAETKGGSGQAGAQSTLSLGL

[6] = target: Adenosine receptor A2b (Homo sapiens, UniProt P29275); test: Displacement of [3H] DPCPX from human adenosine A2B receptor expressed in HEK293 cells incubated for 60 mins by radioligand binding assay; assay type: cell-based
Sequence of Adenosine receptor A2b (Homo sapiens, UniProt P29275) (P29275 whole entry): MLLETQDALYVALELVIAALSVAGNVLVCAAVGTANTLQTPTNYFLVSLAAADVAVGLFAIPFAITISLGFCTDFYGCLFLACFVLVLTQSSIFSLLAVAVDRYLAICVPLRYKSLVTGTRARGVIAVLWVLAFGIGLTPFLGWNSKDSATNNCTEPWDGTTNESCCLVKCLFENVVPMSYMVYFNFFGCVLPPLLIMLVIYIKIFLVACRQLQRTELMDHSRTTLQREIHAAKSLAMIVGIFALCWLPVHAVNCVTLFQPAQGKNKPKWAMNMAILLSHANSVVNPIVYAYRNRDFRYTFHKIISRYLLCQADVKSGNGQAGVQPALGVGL

[7] = target: Adenosine receptor A2a (Mus musculus, UniProt Q60613); test: Displacement of [3H] ZM241385 from mouse adenosine A2A receptor expressed in HEK293 cells incubated for 60 mins by radioligand binding assay; assay type: cell-based
Sequence of Adenosine receptor A2a (Mus musculus, UniProt Q60613) (Q60613 whole entry): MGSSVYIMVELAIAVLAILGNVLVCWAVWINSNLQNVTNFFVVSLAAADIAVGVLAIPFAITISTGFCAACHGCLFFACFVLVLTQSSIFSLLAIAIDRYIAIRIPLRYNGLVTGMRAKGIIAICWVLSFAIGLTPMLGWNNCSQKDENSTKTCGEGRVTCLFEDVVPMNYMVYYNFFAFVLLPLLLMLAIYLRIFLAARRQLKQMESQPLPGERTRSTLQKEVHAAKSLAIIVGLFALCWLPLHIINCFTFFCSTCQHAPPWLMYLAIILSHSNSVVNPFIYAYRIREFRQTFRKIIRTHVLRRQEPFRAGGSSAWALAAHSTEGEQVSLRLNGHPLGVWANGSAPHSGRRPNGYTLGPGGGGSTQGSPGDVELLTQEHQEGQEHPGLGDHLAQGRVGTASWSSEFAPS

[8] = target: Adenosine receptor A2a (Rattus norvegicus, UniProt P30543); test: Displacement of [3H] ZM241385 from rat adenosine A2A receptor expressed in HEK293 cells incubated for 60 mins by radioligand binding assay; assay type: cell-based
Sequence of Adenosine receptor A2a (Rattus norvegicus, UniProt P30543) (P30543 whole entry): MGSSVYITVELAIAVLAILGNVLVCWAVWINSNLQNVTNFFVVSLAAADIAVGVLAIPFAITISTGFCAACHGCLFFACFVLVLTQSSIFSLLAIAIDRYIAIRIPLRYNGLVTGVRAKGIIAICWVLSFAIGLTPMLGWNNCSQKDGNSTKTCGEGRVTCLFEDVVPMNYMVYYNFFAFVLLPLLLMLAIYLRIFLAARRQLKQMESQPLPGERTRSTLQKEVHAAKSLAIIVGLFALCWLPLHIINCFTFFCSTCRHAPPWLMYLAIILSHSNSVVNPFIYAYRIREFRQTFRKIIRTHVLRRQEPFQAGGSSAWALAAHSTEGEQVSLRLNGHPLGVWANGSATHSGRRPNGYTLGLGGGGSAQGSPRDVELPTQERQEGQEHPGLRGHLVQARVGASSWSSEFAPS

[9] = target: Adenosine receptor A2a (Homo sapiens, UniProt P29274); test: Displacement of [3H] ZM241385 from human adenosine A2A receptor expressed in HEK293 cells incubated for 60 mins by radioligand binding assay; assay type: cell-based
Sequence of Adenosine receptor A2a (Homo sapiens, UniProt P29274) (P29274 whole entry): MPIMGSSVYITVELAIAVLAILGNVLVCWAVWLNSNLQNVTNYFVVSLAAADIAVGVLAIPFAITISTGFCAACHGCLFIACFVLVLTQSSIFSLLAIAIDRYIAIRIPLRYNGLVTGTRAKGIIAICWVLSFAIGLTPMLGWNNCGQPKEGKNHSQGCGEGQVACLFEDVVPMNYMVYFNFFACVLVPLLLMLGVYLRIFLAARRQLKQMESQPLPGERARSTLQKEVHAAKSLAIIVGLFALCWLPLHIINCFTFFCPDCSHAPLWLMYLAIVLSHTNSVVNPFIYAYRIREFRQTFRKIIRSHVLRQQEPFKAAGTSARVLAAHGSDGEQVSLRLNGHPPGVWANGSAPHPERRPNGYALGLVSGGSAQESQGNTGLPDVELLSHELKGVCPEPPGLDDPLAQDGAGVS

[10] = target: Adenosine receptor A1 (Rattus norvegicus, UniProt P25099); test: Displacement of [3H] DPCPX from rat adenosine A1 receptor expressed in HEK293 cells incubated for 60 mins by radioligand binding assay; assay type: cell-based
Sequence of Adenosine receptor A1 (Rattus norvegicus, UniProt P25099) (P25099 whole entry): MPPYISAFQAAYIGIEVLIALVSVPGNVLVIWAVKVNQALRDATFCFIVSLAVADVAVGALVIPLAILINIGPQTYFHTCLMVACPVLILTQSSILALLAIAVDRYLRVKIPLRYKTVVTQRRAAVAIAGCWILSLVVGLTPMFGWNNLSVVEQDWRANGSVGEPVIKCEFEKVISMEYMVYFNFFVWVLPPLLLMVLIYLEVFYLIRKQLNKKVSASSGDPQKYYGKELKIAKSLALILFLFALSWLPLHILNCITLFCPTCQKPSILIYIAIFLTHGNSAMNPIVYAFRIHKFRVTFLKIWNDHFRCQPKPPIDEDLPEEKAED

[11] = target: T3, Adenosine receptor A1 (Mus musculus, UniProt Q60612); test: Displacement of [3H] DPCPX from mouse adenosine A1 receptor expressed in HEK293 cells incubated for 60 mins by radioligand binding assay; assay type: cell-based
T3 sequence (Q60612 whole entry): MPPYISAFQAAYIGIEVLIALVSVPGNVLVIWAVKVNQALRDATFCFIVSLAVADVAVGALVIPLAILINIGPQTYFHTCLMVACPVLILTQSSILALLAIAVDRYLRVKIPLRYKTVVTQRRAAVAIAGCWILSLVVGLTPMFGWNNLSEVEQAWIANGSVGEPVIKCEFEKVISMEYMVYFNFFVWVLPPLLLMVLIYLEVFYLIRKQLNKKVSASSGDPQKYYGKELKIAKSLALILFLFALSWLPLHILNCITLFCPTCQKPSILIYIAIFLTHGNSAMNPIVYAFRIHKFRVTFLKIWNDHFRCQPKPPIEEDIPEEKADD

[12] = target: T4, Adenosine receptor A1 (Homo sapiens, UniProt P30542); test: Displacement of [3H] DPCPX from human adenosine A1 receptor expressed in HEK293 cells incubated for 60 mins by radioligand binding assay; assay type: cell-based
T4 sequence (P30542 whole entry): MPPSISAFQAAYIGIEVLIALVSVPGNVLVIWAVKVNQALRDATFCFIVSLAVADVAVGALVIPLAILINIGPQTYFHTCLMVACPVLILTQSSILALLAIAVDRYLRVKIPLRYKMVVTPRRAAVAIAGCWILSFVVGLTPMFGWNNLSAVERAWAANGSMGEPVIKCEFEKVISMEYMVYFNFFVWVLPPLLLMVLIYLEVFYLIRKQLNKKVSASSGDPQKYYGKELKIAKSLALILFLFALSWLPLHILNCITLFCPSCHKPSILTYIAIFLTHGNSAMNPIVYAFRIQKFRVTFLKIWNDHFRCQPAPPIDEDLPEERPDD

[13] = target: Muscarinic acetylcholine receptor M5 (Homo sapiens, UniProt P08912); test: Binding affinity to human M5 receptor by radioligand binding assay
Sequence of Muscarinic acetylcholine receptor M5 (P08912 whole entry): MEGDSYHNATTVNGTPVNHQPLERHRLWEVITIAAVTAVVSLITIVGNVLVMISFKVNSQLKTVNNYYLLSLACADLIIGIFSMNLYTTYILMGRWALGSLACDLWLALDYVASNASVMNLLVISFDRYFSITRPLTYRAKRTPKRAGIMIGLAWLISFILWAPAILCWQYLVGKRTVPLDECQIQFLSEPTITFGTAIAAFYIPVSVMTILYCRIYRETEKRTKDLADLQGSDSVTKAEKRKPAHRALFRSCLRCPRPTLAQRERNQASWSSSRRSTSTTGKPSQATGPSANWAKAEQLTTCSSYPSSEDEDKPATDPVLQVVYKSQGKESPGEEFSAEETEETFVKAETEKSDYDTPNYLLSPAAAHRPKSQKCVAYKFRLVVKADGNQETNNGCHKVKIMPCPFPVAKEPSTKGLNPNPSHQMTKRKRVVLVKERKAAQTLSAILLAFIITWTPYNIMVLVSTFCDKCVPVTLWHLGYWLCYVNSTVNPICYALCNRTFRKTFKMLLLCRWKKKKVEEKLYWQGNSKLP

[14] = target: 5-hydroxytryptamine receptor 2A (Homo sapiens, UniProt P28223); test: Binding affinity to human 5-HT2A receptor by radioligand binding assay
Sequence of 5-hydroxytryptamine receptor 2A (P28223 whole entry): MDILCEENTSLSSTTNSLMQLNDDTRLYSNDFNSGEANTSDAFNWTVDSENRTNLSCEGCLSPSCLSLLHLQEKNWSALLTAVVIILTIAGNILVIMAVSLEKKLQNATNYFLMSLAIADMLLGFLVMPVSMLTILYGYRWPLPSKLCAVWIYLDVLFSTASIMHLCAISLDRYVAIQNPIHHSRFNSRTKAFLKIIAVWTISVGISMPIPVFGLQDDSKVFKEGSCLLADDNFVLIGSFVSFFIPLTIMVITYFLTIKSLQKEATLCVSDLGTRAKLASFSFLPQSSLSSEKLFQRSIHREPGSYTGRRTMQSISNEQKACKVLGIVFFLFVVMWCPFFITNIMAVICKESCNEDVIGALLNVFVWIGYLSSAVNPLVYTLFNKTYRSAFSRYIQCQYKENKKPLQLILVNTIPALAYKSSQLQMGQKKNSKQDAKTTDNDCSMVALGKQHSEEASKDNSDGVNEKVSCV

[15] = target: 5-hydroxytryptamine receptor 2C (Homo sapiens, UniProt P28335); test: Binding affinity to human 5-HT2C receptor by radioligand binding assay
Sequence of 5-hydroxytryptamine receptor 2C (P28335 whole entry): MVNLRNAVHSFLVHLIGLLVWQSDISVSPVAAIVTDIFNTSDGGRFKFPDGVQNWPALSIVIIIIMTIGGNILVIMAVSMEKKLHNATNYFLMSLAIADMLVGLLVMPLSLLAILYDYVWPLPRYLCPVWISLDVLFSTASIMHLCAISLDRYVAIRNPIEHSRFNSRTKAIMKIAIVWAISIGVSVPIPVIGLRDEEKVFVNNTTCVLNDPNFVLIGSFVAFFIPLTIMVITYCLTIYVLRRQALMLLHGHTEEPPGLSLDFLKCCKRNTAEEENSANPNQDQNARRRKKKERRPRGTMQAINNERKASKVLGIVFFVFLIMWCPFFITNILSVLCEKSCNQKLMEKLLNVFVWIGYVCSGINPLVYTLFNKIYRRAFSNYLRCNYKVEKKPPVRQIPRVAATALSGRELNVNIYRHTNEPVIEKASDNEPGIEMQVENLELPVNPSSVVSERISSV

[16] = C0 in Sprague-Dawley rat plasma at 1 mg/kg, iv measured after 8 hrs by LC-MS/MS analysis; assay type: ADME, organism-based
[17] = C0 in Sprague-Dawley rat brain at 1 mg/kg, iv measured after 8 hrs by LC-MS/MS analysis; assay type: ADME, organism-based
[18] = Drug concentration in Sprague-Dawley rat plasma assessed as average concentration at 1 mg/kg, iv measured after 8 hrs by LC-MS/MS analysis; assay type: ADME, organism-based; conditions: in vivo
[19] = Drug concentration in Sprague-Dawley rat brain concentration assessed as average concentration at 1 mg/kg, iv measured after 8 hrs by LC-MS/MS analysis; assay type: ADME, organism-based; conditions: in vivo
[20] = Clearance in Sprague-Dawley rat plasma at 1 mg/kg, iv measured after 8 hrs by LC-MS/MS analysis; assay type: ADME, organism-based
[21] = Volume of distribution in Sprague-Dawley rat plasma at 1 mg/kg, iv measured after 8 hrs by LC-MS/MS analysis; assay type: ADME, organism-based
[22] = Volume of distribution in Sprague-Dawley rat brain at 1 mg/kg, iv measured after 8 hrs by LC-MS/MS analysis; assay type: ADME, organism-based
[23] = Half life in Sprague-Dawley rat plasma at 1 mg/kg, iv measured after 8 hrs by LC-MS/MS analysis; assay type: ADME, organism-based
[24] = Half life in Sprague-Dawley rat brain at 1 mg/kg, iv measured after 8 hrs by LC-MS/MS analysis; assay type: ADME, organism-based
[25] = Fraction unbound in Sprague-Dawley rat plasma assessed as unbound fraction at 1 mg/kg, iv measured after 8 hrs by LC-MS/MS analysis; assay type: ADME, organism-based
[26] = Fraction unbound in Sprague-Dawley rat brain assessed as unbound fraction at 1 mg/kg, iv measured after 8 hrs by LC-MS/MS analysis; assay type: ADME, organism-based

SMILES: Cc1cc(C)cc(-c2nc(NC(=O)c3cccnc3)sc2-c2ccncc2)c1
- Ki [1]: 8.53 nM
- Ki [2]: 9.61 nM
- logP [3]: 4.68
- Ki [4]: 163 nM
- Ki [5]: 189 nM
- Ki [6]: 230 nM
- Ki [7]: 830 nM
- Ki [8]: 1150 nM
- Ki [9]: 121 nM
- Ki [10]: 333 nM
- Ki [11]: 411 nM
- Ki [12]: 162 nM
- Ki [13]: 3700 nM
- Ki [14]: 960 nM
- Ki [15]: 790 nM
- C0 at 8 h [16]: 628 ng/mL
- C0 at 8 h [17]: 760 ng/mL
- Cave [18]: 52 ng/mL
- Cave [19]: 95 ng/mL
- clearance [20]: 40 mL/min/kg
- Vd [21]: 1.8 L/kg
- Vd [22]: 1.9 L/kg
- half-life [23]: 48 min
- half-life [24]: 42 min
- fraction unbound at 8 h [25]: 0.03
- fraction unbound at 8 h [26]: 0.03
